According to US7071168B2, “Anti-cancer compounds and methods related thereto” (The Regents of the University of Colorado, priority 1998, dated 2006):

How the values were obtained:
[1] = system: SCLC strain SHP-77; experiment: Colorimetric tetrazolium (MTT) assay for cell survival, SCLC strain SHP-77; type: cell-based, human
In short: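 MTT assay: cells seeded overnight, treated in triplicate across a concentration range for 4 days at 37 °C, 5% CO2. On day 5, MTT was added for 4 h; formazan was dissolved in acidified isopropanol and absorbance read.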

[2] = system: bradykinin response of isolated guinea pig ileum; experiment: Anti-bradykinin activity on isolated guinea pig ileum
In short: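 Bradykinin concentration-effect curves were run in the absence and presence of compound. Tissue: 25 mm terminal ileum from male Hartley guinea pigs fasted overnight, held at 1 g tension in O2/CO2-bubbled Krebs' solution after 1 h equilibration.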

[3] = isolated guinea pig ileum, pD2 of bradykinin is 7.4, higher numbers indicate higher potency
[4] = Table 1, higher numbers indicate higher potency

Molecule	MTT: ED50 for killing of SCLC strain SHP-77 in vitro ([1]; SCLC strain SHP-77 in vitro)	GPI: pA2 for bradykinin antagonist activity on isolated guinea pig ileum [2, 3]	MTT: ED50 for killing of SCLC strain SHP-77 in vitro ([1]; Table 1, SHP-77, MTT, 4 days)	GPI: pA2 for bradykinin antagonist activity on isolated guinea pig ileum [2, 4]	other results
(Dns-DArg-Igl-Arg)2-DDA [M678]	1.1 µM	5.3			
(DArg-Arg-Pro-Hyp)2Dpr-Igl-Ser-DIgl-Oic-Arg [B10098]			20 µM	5.3	
DDD-(DArg-Arg-Aud-Ser-DIgl-Oic-Arg)2 [M858]			4 µM	6.3	
CC1(C)CC(NC(=O)[C@H](Cc2csc3ccccc23)NC(=N)CCCCCCCCCCCCC(=N)N[C@@H](Cc2csc3ccccc23)C(=O)NC2CC(C)(C)NC(C)(C)C2)CC(C)(C)N1 [M436-2]	4.5 µM	5.8			
O=C(NC1CN2CCC1CC2)C(NC(=NC1CCCCC1)NC1CCCCC1)C1Cc2ccccc2C1 (stereo not drawn) [M12]	20 µM	5.0			
c[DArg-Arg-Add-DF5F-Oic-Arg] [M870]					MTT: ED50 for killing of SCLC strain SHP-77 in vitro ([1]; Table 3, cyclic peptides): 5.5 µM; GPI: pA2 for bradykinin antagonist activity on isolated guinea pig ileum ([2]; Table 3, cyclic peptides): 5.3
DDD-(DArg-Arg-Aud-DF5F-Oic-Arg)2 [M846]			2 µM	7.1	
TDIM-(DArg-Arg-Pro-Hyp-Gly-Thi-Ser-DIgl-Oic-Arg)2 [B10104-2]			4 µM	8.0	
c[DArg-Arg-Add-Ser-DF5F-Oic-Arg] [M874]					MTT: ED50 for killing of SCLC strain SHP-77 in vitro ([1]; Table 3, cyclic peptides): 11 µM; GPI: pA2 for bradykinin antagonist activity on isolated guinea pig ileum ([2]; Table 3, cyclic peptides): 5.0
DDD-(p-ABz-hPhe-Arg)2 [M552]			Inact	Inact	
F5c-pABz-2Nal-Arg [M176]			Inact	5.4	
EGS-(DArg-Arg-Pro-Hyp-Gly-Igl-Ser-DIgl-Oic-Arg)2 [B10252]			25 µM	8.3	
CC1(C)CC(NC(=O)[C@H](Cc2ccc3ccccc3c2)NC(=O)C2=CN3CCC2CC3)CC(C)(C)N1 [M252]	Inact	4.8			
DDD-(DPhe-hPhe-Arg)2 [M756]			18 µM	5.2	
COc1cc(C=CC(=O)N[C@@H](Cc2ccc3ccccc3c2)C(=O)NC2CC(C)(C)NC(C)(C)C2)cc(OC)c1O [M274]	36 µM	4.7			
F5c-DArg-Eac-2Nal-Arg [M696]			Inact	5.1	
CC1(C)CC(NC(=O)[C@@H](N)Cc2ccc3ccccc3c2)CC(C)(C)N1 [M218]	Inact	4.8			
Leu-Leu-DTrp-Phe-DTrp-DNMF-Eac2-DArg-Arg-Pro-Hyp-Gly-Igl-Ser-Digl-Oic-Arg [B10162]			7 µM	6.3	
D-Arg-Arg-Aud-PaF(F5c)-Arg [M726]			Inact	5.6	
CC1(C)CC(NC(=O)C(NC(=O)C=Cc2c(F)c(F)c(F)c(F)c2F)C(C)(C)C)CC(C)(C)N1 (stereo not drawn) [M662]	Inact	5.2			
c[Ava-Igl-Ser-DF5F-Oic-Arg] [M824]					MTT: ED50 for killing of SCLC strain SHP-77 in vitro ([1]; Table 3, cyclic peptides): Inact; GPI: pA2 for bradykinin antagonist activity on isolated guinea pig ileum ([2]; Table 3, cyclic peptides): 5.2
CC1(C)CC(NC(=O)[C@@H](NC(=NC2CCCCC2)NC2CCCCC2)C2Cc3ccccc3C2)CC(C)(C)N1 [M236]	>50 µM	4.7			
EGS-(DArg-Arg-Eac-Ser-DF5F-Nc7G-Arg)2 [M1030]			51 µM	7.0	

Molecule	MTT: ED50 for killing of SCLC strain SHP-77 in vitro ([1]; SCLC strain SHP-77 in vitro)	GPI: pA2 for bradykinin antagonist activity on isolated guinea pig ileum [2, 3]	MTT: ED50 for killing of SCLC strain SHP-77 in vitro ([1]; Table 1, SHP-77, MTT, 4 days)	GPI: pA2 for bradykinin antagonist activity on isolated guinea pig ileum [2, 4]	other results
CC1(C)CC(NC(=O)[C@H](Cc2c[nH]c3ccccc23)NC(=NC2CCCCC2)NC2CCCCC2)CC(C)(C)N1 [M264]	16 µM	4.7			
CC1=C(CC(=O)NC2CC(C)(C)NC(C)(C)C2)c2cc(F)ccc2C1=Cc1ccc([S+](C)[O-])cc1 (stereo not drawn) [M654]	Inact	4.5			
DDD-(DArg-Arg-Aud-PaF(F5c)-Arg)2 [M728]			4 µM	5.3	
Ava-Igl-Ser-DF5F-Oic-Arg [M806]			Inact	5.6	
DDD-(Pac-2Nal-DArg-NH2)2 [M504]			11 µM	5.4	
CN(C)c1cccc2c(S(=O)(=O)NC(Cc3ccc(OCc4c(Cl)cccc4Cl)cc3)C(=O)N(C)C3CC(C)(C)NC(C)(C)C3)cccc12 (stereo not drawn) [M624]	1.4 µM	5.1			
DDD-(DArg-Arg-Eac-Ser-DIgl-Oic-Arg)2 [M854]			7.3 µM	5.9	
CN(C)c1ccc(C=CC(=O)NC(Cc2ccc3ccccc3c2)C(=O)NC2CC(C)(C)NC(C)(C)C2)cc1 (stereo not drawn) [M324]	3 µM	5.2			
c[DArg-Arg-Ava-Ser-DF5F-Oic-Arg] [M908]					MTT: ED50 for killing of SCLC strain SHP-77 in vitro ([1]; Table 3, cyclic peptides): 40 µM; GPI: pA2 for bradykinin antagonist activity on isolated guinea pig ileum ([2]; Table 3, cyclic peptides): 4.9
Moti-DArg-Arg-Pro-Hyp-Gly-Thi-Ser-DIgl-Oic-Arg [B10104-3]			20 µM	8.1	
CC1(C)CC(NC(=O)C(Cc2cccc3ccccc23)NC(=O)C=Cc2ccc(NC(=O)CCCCCCCCCCC(=O)Nc3ccc(C=CC(=O)NC(Cc4cccc5ccccc45)C(=O)NC4CC(C)(C)NC(C)(C)C4)cc3)cc2)CC(C)(C)N1 (stereo not drawn) [M616]	1.4 µM	5.4			
Leu-DTrp-Phe-DTrp-DNMF-Eac2-DArg-Arg-Pro-Hyp-Gly-Igl-Ser-DIgl-Oic-Arg [B10160]			10 µM	6.3	
SBEC-(DArg-Arg-Eac-Ser-DF5F-Nc7G-Arg)2 [M1028]			28 µM	6.7	
c[DArg-Arg-Add-Ser-DIgl-PFF-Arg] [M882]					MTT: ED50 for killing of SCLC strain SHP-77 in vitro ([1]; Table 3, cyclic peptides): 4.5 µM; GPI: pA2 for bradykinin antagonist activity on isolated guinea pig ileum ([2]; Table 3, cyclic peptides): Inact
CN(C)c1ccc(C=CC(=O)NC(Cc2csc3ccccc23)C(=O)NC2CC(C)(C)NC(C)(C)C2)cc1 (stereo not drawn) [M448]	2.7 µM	5.7			
CN(C(=O)C(Cc1ccc(OCc2c(Cl)cccc2Cl)cc1)NC(=O)C=Cc1cccnc1)C1CC(C)(C)NC(C)(C)C1 (stereo not drawn) [M626]	3.7 µM	4.8			
F5c-NMF-Arg [M686]			29 µM	5.6	
DDD-(Lys-Ser-DF5F-Oic-Arg)2 [M808]			30 µM	6.9	
DDD-(DArg-F5F-DArg)2 [M1036]			40 µM	5.4	
DDD-(Pac-hPhe-Arg)2 [M746]			Inact	Inact	
CC1(C)CC(NC(=O)[C@H](Cc2ccc3ccccc3c2)NC(=N)CCCCCCCCCCCCC(=N)N[C@@H](Cc2ccc3ccccc3c2)C(=O)NC2CC(C)(C)NC(C)(C)C2)CC(C)(C)N1 [M254]	5 µM	5.1			
CC1(C)CC(NC(=O)[C@H](Cc2ccc3ccccc3c2)NC(=O)C=Cc2c(F)c(F)c(F)c(F)c2F)CC(C)(C)N1 [M248]	3.2 µM	6.2			
